Measurements: patent US20250041429A1, “COMPOUND HAVING BTK PROTEIN DEGRADATION ACTIVITY, AND MEDICAL USES THEREOF” (UBIX THERAPEUTICS, INC., priority 2021, published 2025)

Biological target: T1, BTK protein (Homo sapiens, UniProt Q06187)
T1 construct: endogenous in cells; host or cells: TMD-8 cells
Assay: Measurement of BTK protein degradation ability in TMD-8 cells (Western blotting)
Format: cell-based
Details: harvested after 24 hours; for BTK degradation (%) 1 nM: compound 1 nM; for BTK degradation (%) 10 nM: compound 10 nM; for BTK degradation (%) 100 nM: compound 100 nM
Summary of the method: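 TMD-8 cells (1×10^6/mL) were treated for 24 h with compound at 0.1, 1, 10 μM or 0.0001–0.1 μM, with DMSO as vehicle control. RIPA lysates were normalized by BCA assay. BTK was detected by Western blot with anti-BTK, using GAPDH or β-actin as loading controls, and imaged on LI-COR Odyssey.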

T1 sequence (Q06187 whole entry): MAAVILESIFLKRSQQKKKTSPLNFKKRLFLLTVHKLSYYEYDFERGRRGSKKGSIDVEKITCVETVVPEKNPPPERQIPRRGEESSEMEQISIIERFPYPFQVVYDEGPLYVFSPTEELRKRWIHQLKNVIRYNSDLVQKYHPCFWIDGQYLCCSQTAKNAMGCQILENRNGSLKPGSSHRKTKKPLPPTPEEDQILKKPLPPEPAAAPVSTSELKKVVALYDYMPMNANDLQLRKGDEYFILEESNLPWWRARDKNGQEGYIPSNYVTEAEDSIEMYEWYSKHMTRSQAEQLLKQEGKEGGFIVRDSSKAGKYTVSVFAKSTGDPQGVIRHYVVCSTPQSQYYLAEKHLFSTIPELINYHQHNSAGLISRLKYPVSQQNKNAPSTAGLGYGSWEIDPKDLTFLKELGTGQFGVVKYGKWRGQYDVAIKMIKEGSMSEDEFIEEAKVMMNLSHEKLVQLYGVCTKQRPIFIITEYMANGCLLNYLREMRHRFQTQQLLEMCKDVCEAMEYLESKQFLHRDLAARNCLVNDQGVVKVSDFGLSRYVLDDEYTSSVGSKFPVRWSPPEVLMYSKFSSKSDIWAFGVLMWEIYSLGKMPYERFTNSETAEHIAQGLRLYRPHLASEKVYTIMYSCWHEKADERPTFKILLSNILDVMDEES

BTK degradation (%) 1 nM | BTK degradation (%) 10 nM | BTK degradation (%) 100 nM | SMILES
54.5% | 95.5% | 100.0% | Cc1cc(-c2ccnc(Nc3ccc(N4CCC(CN5CCC(c6ccc(NC7CCC(=O)NC7=O)cn6)CC5)CC4)cc3)n2)ccc1CNC(=O)c1cn(C(C)(C)C)nn1 (stereo not drawn) [Example 132, 1-(tert-butyl)-N-(4-(2-((4-(4-((4-(5-((2,6-dioxopiperidin-3-yl)amino)pyridin-2-yl)piperidin-1-yl)methyl)piperidin-1-yl)phenyl)amino)pyrimidin-4-yl)-2-methylbenzyl)-1H-1,2,3-triazole-4-carboxamide]
60.5% | 96.5% | 100.0% | Cc1cc(-c2ccnc(Nc3ccc(N4CCC(CN5CCN(c6ccc(NC7CCC(=O)NC7=O)cn6)CC5)CC4)cc3)n2)ccc1CNC(=O)c1cn(C(C)(C)C)nn1 (stereo not drawn) [Example 133, 1-(tert-butyl)-N-(4-(2-((4-(4-((4-(5-((2,6-dioxopiperidin-3-yl)amino)pyridin-2-yl)piperazin-1-yl)methyl)piperidin-1-yl)phenyl)amino)pyrimidin-4-yl)-2-methylbenzyl)-1H-1,2,3-triazole-4-carboxamide]
58.5% | 93.5% | 98.5% | Cc1cc(-c2ccnc(Nc3ccc(N4CCC(CN5CCC(c6ccc(NC7CCC(=O)NC7=O)cc6)CC5)CC4)cc3)n2)ccc1CNC(=O)c1cnn(C(C)C)c1 (stereo not drawn) [Example 134, N-(4-(2-((4-(4-((4-(4-((2,6-dioxopiperidin-3-yl)amino)phenyl)piperidin-1-yl)methyl)piperidin-1-yl)phenyl)amino)pyrimidin-4-yl)-2-methylbenzyl)-1-isopropyl-1H-pyrazole-4-carboxamide]
59.0% | 94.5% | 99.0% | Cc1cc(-c2ccnc(Nc3ccc(N4CCC(CN5CCC(c6ccc(NC7CCC(=O)NC7=O)cc6)CC5)CC4)cc3)n2)ccc1CNC(=O)c1cnn(C(C)(C)C)c1 (stereo not drawn) [Example 135, 1-(tert-butyl)-N-(4-(2-((4-(4-((4-(4-((2,6-dioxopiperidin-3-yl)amino)phenyl)piperidin-1-yl)methyl)piperidin-1-yl)phenyl)amino)pyrimidin-4-yl)-2-methylbenzyl)-1H-pyrazole-4-carboxamide]
71.0% | 95.5% | 98.5% | Cc1cc(-c2ccnc(Nc3ccc(N4CCC(CN5CCC(c6ccc(NC7CCC(=O)NC7=O)cc6)CC5)CC4)cc3)n2)ccc1CNC(=O)c1cn(C(C)(C)C)nn1 (stereo not drawn) [Example 136, 1-(tert-butyl)-N-(4-(2-((4-(4-((4-(4-((2,6-dioxopiperidin-3-yl)amino)phenyl)piperidin-1-yl)methyl)piperidin-1-yl)phenyl)amino)pyrimidin-4-yl)-2-methylbenzyl)-1H-1,2,3-triazole-4-carboxamide]
25.0% | 81.5% | 97.0% | Cc1cc(-c2ccnc(Nc3ccc(N4CCC(CN5CCC(c6ccc(NC7CCC(=O)NC7=O)cc6)CC5)CC4)cc3)n2)cnc1CNC(=O)c1cn(C(C)(C)C)nn1 (stereo not drawn) [Example 137, 1-(tert-butyl)-N-((5-(2-((4-(4-((4-(4-((2,6-dioxopiperidin-3-yl)amino)phenyl)piperidin-1-yl)methyl)piperidin-1-yl)phenyl)amino)pyrimidin-4-yl)-3-methylpyridin-2-yl)methyl)-1H-1,2,3-triazole-4-carboxamide]
15.5% | 71.5% | 90.0% | Cc1cc(-c2ccnc(Nc3ccc(N4CCC(CN5CCC(c6cccc(N7CCC(=O)NC7=O)c6)CC5)CC4)cc3)n2)ccc1CNC(=O)c1cn(C(C)(C)C)nn1 [Example 138, 1-(tert-butyl)-N-(4-(2-((4-(4-((4-(3-(2,4-dioxotetrahydropyrimidin-1 (2H)-yl)phenyl)piperidin-1-yl)methyl)piperidin-1-yl)phenyl)amino)pyrimidin-4-yl)-2-methylbenzyl)-1H-1,2,3-triazole-4-carboxamide]
15.5% | 68.0% | 95.0% | Cc1cc(-c2ccnc(Nc3ccc(N4CCC(CN5CCC(c6ccc(N7CCC(=O)NC7=O)cc6)CC5)CC4)cc3)n2)ccc1CNC(=O)c1cn(C(C)(C)C)nn1 [Example 139, 1-(tert-butyl)-N-(4-(2-((4-(4-((4-(4-(2,4-dioxotetrahydropyrimidin-1 (2H)-yl)phenyl)piperidin-1-yl)methyl)piperidin-1-yl)phenyl)amino)pyrimidin-4-yl)-2-methylbenzyl)-1H-1,2,3-triazole-4-carboxamide]
0.5% | 10.5% | 77.0% | Cc1cc(-c2ccnc(Nc3ccc(CN4CCC(CN5CCC(c6cccc(N7CCC(=O)NC7=O)c6)CC5)CC4)cc3)n2)ccc1CNC(=O)c1cn(C(C)(C)C)nn1 [Example 140]
15.0% | 70.5% | 96.5% | Cc1cc(-c2ccnc(Nc3ccc(CN4CCC(CN5CCC(c6ccc(N7CCC(=O)NC7=O)cc6)CC5)CC4)cc3)n2)ccc1CNC(=O)c1cn(C(C)(C)C)nn1 [Example 141, 1-(tert-butyl)-N-(4-(2-((4-((4-((4-(4-(2,4-dioxotetrahydropyrimidin-1 (2H)-yl)phenyl)piperidin-1-yl)methyl)piperidin-1-yl)methyl)phenyl)amino)pyrimidin-4-yl)-2-methylbenzyl)-1H-1,2,3-triazole-4-carboxamide]
44.5% | 88.5% | 99.0% | Cc1cc(-c2ccnc(Nc3ccc(CN4CCC(CN5CCC(c6ccc(NC7CCC(=O)NC7=O)cc6)CC5)CC4)cc3)n2)ccc1CNC(=O)c1cn(C(C)(C)C)nn1 (stereo not drawn) [Example 142, 1-(tert-butyl)-N-(4-(2-((4-((4-((4-(4-((2,6-dioxopiperidin-3-yl)amino)phenyl)piperidin-1-yl)methyl)piperidin-1-yl)methyl)phenyl)amino)pyrimidin-4-yl)-2-methylbenzyl)-1H-1,2,3-triazole-4-carboxamide]
74.0% | 99.5% | 100.0% | CC(C)(C)n1cc(C(=O)NCc2ccc(-c3ccnc(Nc4ccc(N5CCC(CN6CCC(c7ccc(NC8CCC(=O)NC8=O)cc7)CC6)CC5)cc4)n3)cc2CO)nn1 (stereo not drawn) [Example 143, 1-(tert-butyl)-N-(4-(2-((4-(4-((4-(4-((2,6-dioxopiperidin-3-yl)amino)phenyl)piperidin-1-yl)methyl)piperidin-1-yl)phenyl)amino)pyrimidin-4-yl)-2-(hydroxymethyl)benzyl)-1H-1,2,3-triazole-4-carbamide]
28.0% | 77.0% | 98.5% | Cc1cc(-c2ccnc(Nc3ccc(N4CCC(CN5CCC(c6ccc(OC7CCC(=O)NC7=O)cc6)CC5)CC4)nc3)n2)ccc1CNC(=O)N1CC(OC(C)C)C1 (stereo not drawn) [Example 144, N-(4-(2-((6-(4-((4-(4-((2,6-dioxopiperidin-3-yl)oxy)phenyl)piperidin-1-yl)methyl)piperidin-1-yl)pyridin-3-yl)amino)pyrimidin-4-yl)-2-methylbenzyl)-3-isopropoxyazetidine-1-carboxamide]
